Experimental data published in patent US5905149A, “Substituted quinolymethylen-oxindole analogues as tyrosine kinase inhibitors” (Pharmacia & Upjohn S.p.A, priority 1996, dated 1999).

Experiments:
[1] = target: p45 v-abl tyrosine kinase; assay: p45 v-abl kinase assay; type: biochemical, Abelson murine leukemia virus; settings: (Val^5)-angiotensin II phosphorylation; peptide 2 mM, ATP 50 μM; pH 8.0; 30° C.; triplicate; read-out: Inhibition of p45 v-abl kinase, IC50
Protocol: p45 v-abl kinase purification
The enzyme used in our tests is the p45 v-abl tyrosine kinase which represents the catalytic domain of the Abelson tyrosine kinase (isolated from the Abelson murine leukemia virus). The p45 v-abl kinase is produced and isolated as described by Wang et al. in J.Biol.Chem. 260, 64 (1985) and by Ferguson et al. in J. Biol. Chem. 260, 3652 (1985) and in Biochem. J. 257, 321 (1989).
(Val^5)-angiotensin II phosphorylation is performed, by incubation with 40 ng of purified abl-kinase and (γ-^32 P) ATP, in 50 μl of buffer containing Tris-HCl 25 mM, pH 8.0, MgCl2 10 mM and dithiothreitol 0.1 mM (kinase buffer). The reaction mixture is incubated for the indicated time at 30° C. and the reaction stopped by adding 50 μl of 5% trichloracetic acid. After a brief incubation on ice the tubes are centrifuged. The supernatants are spotted on phosphocellulose paper squares (Whatman P-81) and washed extensively in acetic acid. The radioactivity bound to dried phosphocellulose squares is measured in a liquid scintillation counter. IC50 values are calculated from triplicated determination of each experimental point. Each inhibitor is tested at concentrations ranging from […] in the presence of fixed concentrations of peptide (2 mM) and ATP (50 μM).

[2] = tested on: K562 cells, a human myelogenous leukemia cell line; assay: K562 cell growth inhibition assay; type: cell-based; settings: 72 h, cell counting vs untreated control cells
Protocol: K562 cell growth inhibition assay
K562 cells, a human myelogenous leukemia cell line, were seeded into a 24 wells tissue culture plate (Falcon 3047) (10000/well) in the presence of increasing concentrations of the compounds. After 72 h, cells were harvested and were counted using a cell counter (Coulter Counter-ZM). The percent of inhibition was evaluated in respect to the untreated control cells.

For `CCOC(=O)C(C)Oc1ccc(C=C2C(=O)Nc3ccccc32)c2cccnc12` (centres unmarked) [2-[5-(2-oxindol-3-ylidenemethyl)quinol-8-yloxy]propionic acid ethyl ester], the IC50 [1] was 15 µM and the IC50 [2] was 39.5 µM.
